{"source": "patent US20230330178A1", "about": "“USE OF POLYPEPTIDE IN DRUG FOR PREVENTING AND TREATING PNEUMONIA” (priority 2020, published 2023)", "key": {"Streptococcus pneumoniae": {"tested_on": "Streptococcus pneumoniae", "assay": "animal or person", "assay_type": "in vivo", "conditions": "vs model control group", "experimental": "(§1) Animals in the blank administration group were not modeled, and inhaled a high-concentration polypeptide aerosol (0.48 mg/L) through nose and mouth every day. Animals in the blank control group were instilled with a 0.5 mL 0.9% sodium chloride injection through trachea. After the remaining groups were slightly anesthetized with ether, the model control group, the erythromycin group, the budesonide group, the low-dose polypeptide treatment group, and the high-dose polypeptide treatment group were instilled with a 1×10^8 CFU/mL mixed bacteria solution of Staphylococcus aureus, Streptococcus pneumoniae, and Escherichia coli through trachea, 0.5 mL/rat, respectively, and the blank control group was instilled with a 0.9% sodium chloride injection of a same volume.\n(§2) A specific modeling method was as follows: a rat was anesthetized by ether inhalation and lied on an anatomical plate at an angle of 30-45°, trachea of the rat was exposed under an otoscope, a long puncture needle was connected to a 1 mL syringe and inserted into the trachea, each rat was injected with 0.5 mL of mixed bacteria, the puncture needle was pulled out after the injection, the rat was still kept at the original tilt position for about 10 min, and the bacteria solution flowed into bronchus and alveoli due to gravity to cause infection, so as to induce a rat pneumonia model.\n(§3) Each group was administrated for the first time at 2 h after modeling. After the experiment begun, 7.16 mg/mL and 71.6 mg/mL peptide solutions were atomized into aerosol particles with target concentrations of 0.07 and 0.48 mg/L every day, and the animals in the low-dose peptide treatment group and the high-dose peptide treatment group (0.54 mg/kg and 3.7 mg/kg, corresponding to drug concentrations 0.07 and 0.48 mg/L respectively) inhaled the aerosol particles with corresponding concentrations through mouth and nose respectively for 7 consecutive days, 10 min/time, 3 times a day; the blank administration group (cumulative dose 22.2 mg/kg, corresponding to a drug concentration 0.48 mg/L) inhaled 0.48 mg/L peptide aerosol particles through mouth and nose every day for 7 consecutive days, 20 min/time, 3 times a day; the blank control group and the model control group inhaled a 0.9% sodium chloride solution for the same time according to the same method; the erythromycin group and the budesonide group were administrated with a 5 mg/mL erythromycin solution and a 0.05 mg/mL budesonide suspension respectively for the same time according to the same method; and body weight of each group was tested every day.\n(§4) Except the blank administration group, half animals of the remaining groups were randomly selected for lung function test, gross anatomy examination, and pathological test on D4 day, and lungs of 3 animals in each group were selected for bacteria culture and counting; and on D8 day, the remaining animals were subjected to lung function test, gross anatomy examination, and pathological test, and lungs of 3 animals in each group were selected for bacteria culture and counting (the blank control group and the blank administration group were not examined).\n(§5) Experimental steps of bacteria culture: except the blank administration group, six animals were randomly selected from each of the remaining groups (three animals were randomly selected from the first and last anatomies), left middle lobe lung tissues were taken, washed with 0.9% sodium chloride injection, added with double weight of 0.9% sodium chloride injection, and ground into homogenate, the homogenate was inoculated into a meat extract agar medium and cultured at 37° C. for 16 to 18 h, bacteria were isolated, and each isolated bacteria suspension was diluted to 10^−1, 10^−2, 10^−3, 10^−4, 10^−5, 10^−6, 10^−7 and 10^−8 according to 10 times gradient, namely, 9 mL normal saline plus 1 mL bacteria suspension was 10^−1, and so on. […]"}, "Escherichia coli": {"tested_on": "Escherichia coli", "assay": "animal or person", "assay_type": "in vivo", "conditions": "vs model control group", "experimental": "as §1, §2, §3, §4, §5"}, "Staphylococcus aureus": {"tested_on": "Staphylococcus aureus", "assay": "animal or person", "assay_type": "in vivo", "conditions": "vs model control group", "experimental": "as §1, §2, §3, §4, §5"}, "[1]": {"assay": "Body weight of pneumonia model rats during the experiment", "assay_type": "in vivo, SD rats", "conditions": "FIG. 4", "experimental": "as §3"}, "SD rats": {"tested_on": "SD rats", "assay_type": "in vivo", "set-up": "MV: minute ventilation: unit not given here", "experimental": "as §1, §3, §4\nExperimental steps of gross anatomical examination and pathological test: the rats to be tested were anesthetized by intraperitoneal injection of 20% ethyl carbamate (dose 1000 mg/kg), and lung functions of the rats in each group were first tested with a lung function tester. Blood was collected from a ventral aorta, partial pressure of oxygen (PaO2) and partial pressure of carbon dioxide (PaCO2) in the blood of the rats were measured by using a blood gas analyzer, then left lower lobe lung tissues were taken, fixed in formalin, embedded, sectioned, and stained with HE, and pathological changes were observed under the light microscope."}, "[2]": {"conditions": "D4, high-dose 3.7 mg/kg (0.48 mg/L aerosol) inhaled"}, "[3]": {"conditions": "D4, low-dose 0.54 mg/kg (0.07 mg/L aerosol) inhaled"}, "[4]": {"conditions": "D8, high-dose 3.7 mg/kg (0.48 mg/L aerosol) inhaled"}, "[5]": {"conditions": "D8, low-dose 0.54 mg/kg (0.07 mg/L aerosol) inhaled"}, "[6]": {"conditions": "D8, not modeled rats (blank administration group), cumulative dose 22.2 mg/kg (0.48 mg/L aerosol) inhaled 7 days"}}, "note": "Peptide text beside a SMILES is read from it.", "data": [{"smiles": "CSCC[C@H](N)C(=O)NCC(=O)N[C@@H](CCCNC(=N)N)C(=O)N[C@@H](Cc1ccccc1)C(=O)N[C@@H](CCCCN)C(=O)N[C@@H](CCCNC(=N)N)C(=O)N[C@@H](Cc1ccccc1)C(=O)N[C@@H](CCCNC(=N)N)C(=O)N[C@@H](CCCCN)C(=O)N[C@@H](CCCCN)C(=O)N[C@@H](Cc1ccccc1)C(=O)N[C@@H](CCCCN)C(=O)N[C@@H](CCCCN)C(=O)N[C@@H](CC(C)C)C(=O)N[C@@H](Cc1ccccc1)C(=O)N[C@@H](CCCCN)C(=O)N[C@@H](CCCCN)C(=O)N[C@@H](CC(C)C)C(=O)N[C@@H](CO)C(=O)O", "note": "[polypeptide] (H-MGRFKRFRKKFKKLFKKLS-OH)", "values": [{"measurement": "Inhibition rate of streptococcus pneumoniae", "setting": "Streptococcus pneumoniae; [2]", "result": 90.49, "unit": "%"}, {"measurement": "Inhibition rate of streptococcus pneumoniae", "setting": "Streptococcus pneumoniae; [3]", "result": 84.14, "unit": "%"}, {"measurement": "Inhibition rate of streptococcus pneumoniae", "setting": "Streptococcus pneumoniae; [4]", "result": 98.74, "unit": "%"}, {"measurement": "Inhibition rate of streptococcus pneumoniae", "setting": "Streptococcus pneumoniae; [5]", "result": 94.95, "unit": "%"}, {"measurement": "Inhibition rate of escherichia coli", "setting": "Escherichia coli; [2]", "result": 92.16, "unit": "%"}, {"measurement": "Inhibition rate of escherichia coli", "setting": "Escherichia coli; [3]", "result": 71.19, "unit": "%"}, {"measurement": "Inhibition rate of escherichia coli", "setting": "Escherichia coli; [4]", "result": 96.57, "unit": "%"}, {"measurement": "Inhibition rate of escherichia coli", "setting": "Escherichia coli; [5]", "result": 85.77, "unit": "%"}, {"measurement": "Inhibition rate of staphylococcus aureus", "setting": "Staphylococcus aureus; [2]", "result": 90.99, "unit": "%"}, {"measurement": "Inhibition rate of staphylococcus aureus", "setting": "Staphylococcus aureus; [3]", "result": 80.56, "unit": "%"}, {"measurement": "Inhibition rate of staphylococcus aureus", "setting": "Staphylococcus aureus; [4]", "result": 97.43, "unit": "%"}, {"measurement": "Inhibition rate of staphylococcus aureus", "setting": "Staphylococcus aureus; [5]", "result": 96.75, "unit": "%"}, {"measurement": "body weight compared with the model control group", "setting": "[1]; high-dose 3.7 mg/kg (0.48 mg/L aerosol) inhaled", "result": "no significant difference"}, {"measurement": "body weight compared with the model control group", "setting": "[1]; low-dose 0.54 mg/kg (0.07 mg/L aerosol) inhaled", "result": "no significant difference"}, {"measurement": "FEV200 (forced expiratory volume)", "setting": "SD rats; [6]", "result": "3.77 ± 1.07", "unit": "mL"}, {"measurement": "FEV200/FVC", "setting": "SD rats; [6]", "result": "93.81 ± 3.03", "unit": "%"}, {"measurement": "FVC: forced vital capacity", "setting": "SD rats; [6]", "result": "4.01 ± 1.08", "unit": "mL"}, {"measurement": "MV: minute ventilation", "setting": "SD rats; [6]", "result": "0.20 ± 0.04"}, {"measurement": "PaCO2: partial pressure of carbon dioxide", "setting": "SD rats; [6]", "result": "33.09 ± 8.33", "unit": "mmHg"}, {"measurement": "PaO2: partial pressure of oxygen", "setting": "SD rats; [6]", "result": "82.77 ± 11.87", "unit": "mmHg"}, {"measurement": "VT: tidal volume", "setting": "SD rats; [6]", "result": "1.76 ± 0.25", "unit": "mL"}, {"measurement": "arterial blood pH", "setting": "SD rats; [6]", "result": "7.46 ± 0.04"}, {"measurement": "f: respiratory rate", "setting": "SD rats; [6]", "result": "116 ± 15", "unit": "time/min"}, {"measurement": "Lung tissue microscopy", "setting": "SD rats; D8, not modeled rats (blank administration group), cumulative dose 22.2 mg/kg aerosol inhaled", "result": "no obvious abnormality"}, {"measurement": "lung function indexes, and WBC, Neu, TNF-α, and IL-6 in alveolar lavage fluid compared with the blank control group", "setting": "SD rats; SD rats inhaled 22.2 mg/kg polypeptide solution through nose and mouth for 7 consecutive days", "result": "no significant difference"}, {"measurement": "body weight compared with the blank control group", "setting": "SD rats; not modeled rats (blank administration group), cumulative dose 22.2 mg/kg, FIG. 4", "result": "no significant difference"}]}]}
